Values of other authors as cited in patent US10206404B2, “Disinfectant” (Saban Ventures Pty Limited, priority 2012, dated 2019).

Conditions: unbuffered peroxyacetic acid, regardless of how it is produced

Question: With `CC(=O)OO` [peroxyacetic acid] as the compound, how does the pH read?
Answer: Its pH is “around 2.8”.
